Experimental data reported in patent US8771611B2, “System and methods of log-scale concentration gradients” (Auburn University, priority 2011, dated 2014).
Read-outs that look alike come from different tables or passages of the source.

Columns and labels:
[1] = biological target: matrix metalloproteases-9 (MMP-9) (Homo sapiens, UniProt P14780); test: on-chip (microfluidic chip) logistic dose response of MMP-9 inhibitors, fluorogenic MMP substrate III; assay type: biochemical; settings: for deviation in the IC50 values between on-chip and off-chip experiment: comparison on-chip vs off-chip; for IC50: on-chip, 22.15 μM substrate, 5 nM enzyme, inhibitor range 0.063 nM~250 nM, four parameter logistic fit, read-out: IC50 (on-chip, from dose response plots)
Source text: Therefore, a concentration range of 0 to 1000×, in logarithmic scale, is able to be generated in a single experiment.
To determine the kinetic parameters, KM and kcat, the initial velocities of the individual reactions are able to be curve-fitted with the Michaelis-Menten equation using the enzyme kinetics module of Sigmaplot software (Systat software Inc.). For IC50 values with standard error, and 95% confidence interval, the four parameter nonlinear-logistic-regression model available to the inhibition data are curve-fitted. The four parameter model is of the form as shown in the equation (1) below.
[formula] Where, IC50 refers to median point of the concentration-response plot; [I] represents the concentration of inhibitor; h is the Hill coefficient or Hill slope, which means the steepness of dose-response plot; %I designates percentage inhibiting potency, including minimum and maximum.
Therefore, by introducing the three concentrations of inhibitor and buffer, meaningful logarithmic concentrations for dose response are generated such as 0, 1, 2.5, 5, 7.5, 10, 25, 50, 75, 100, 250, 500, 750 and 1000× by the device disclosed herein in semi-direct dilution.
An inhibitor concentration range of 0.063 nM˜250 nM (1:4000) is created on the chip in the 14 reactors. Note that, all the 14 reactors are used considering the requirement of a wider concentration range of inhibitors (FIG. 2D), 22.15 μM of substrate and 5 nM of enzyme are used, respectively.
The substrate QXLTM520-Pro-Leu-Gly-Cys-(Me)-His-Ala-D-Arg-Lys-(5-carboxy-fluorescein)-NH2 (AnaSpec Inc), internally quenched peptide matrix of matrix metalloproteinases-9 (MMP-9) is used for the enzyme reaction. This substrate releases fluorescent signals through dissociation of the quencher (QXLTM520) and carboxyfluorescein (FAM), fluorophore, via proteolytic cleavage by enzymatic reaction. […] For establishing a standard curve, reference dye, FAM-Pro-Leu-OH is used. The excitation and emission wavelengths for FAM are 480 nm and 520 nm, respectively. According to the enzyme reaction types, 50 nM, 10 nM, and 5 nM of MMP-9 are separately dissolved into the reaction buffer (TCNBT; 50 mM Tris, 10 mM CaCl2, 150 mM NaCl, 0.05% Brij-35, 0.05% Tween-20 and 0.1% BSA at pH 7.5). For the substrate of MMP, a stock solution is prepared as 100 μM in TCNBT buffer. […] Prepared reagents are stored at −20 ° C. until dilution with TCNBT buffer for experiment.

MMP-9 enzyme [2] = biological target: T1, MMP-9 enzyme (Homo sapiens, UniProt P14780); test: off-chip experiment, IC50 of MMP-9 inhibitors; assay type: biochemical; settings: read-out: IC50 from the off-chip experiment
Source text: These deviations in the values of IC50 are acceptable, considering enzyme as a biological sample with variable properties.

MMP-9 enzyme [3] = biological target: T1, MMP-9 enzyme; settings: from some literature; read-out: reported IC50 values from literature; cited from earlier work

T1 sequence (P14780 94-707): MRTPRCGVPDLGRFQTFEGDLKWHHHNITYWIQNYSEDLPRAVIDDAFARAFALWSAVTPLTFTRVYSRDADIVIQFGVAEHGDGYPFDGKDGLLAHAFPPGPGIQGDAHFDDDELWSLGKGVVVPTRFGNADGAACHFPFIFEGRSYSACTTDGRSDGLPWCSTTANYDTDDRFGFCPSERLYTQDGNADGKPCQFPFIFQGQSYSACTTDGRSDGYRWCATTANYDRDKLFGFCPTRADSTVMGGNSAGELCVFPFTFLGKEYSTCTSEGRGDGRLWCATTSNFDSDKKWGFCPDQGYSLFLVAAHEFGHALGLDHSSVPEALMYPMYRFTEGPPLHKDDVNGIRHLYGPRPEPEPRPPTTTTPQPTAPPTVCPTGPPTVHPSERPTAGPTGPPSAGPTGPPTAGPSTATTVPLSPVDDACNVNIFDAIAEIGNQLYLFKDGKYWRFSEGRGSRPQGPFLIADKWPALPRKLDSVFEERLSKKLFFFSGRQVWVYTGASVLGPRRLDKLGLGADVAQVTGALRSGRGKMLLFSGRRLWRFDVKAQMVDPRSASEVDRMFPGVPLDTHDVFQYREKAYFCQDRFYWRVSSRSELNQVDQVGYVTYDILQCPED
Sequence of matrix metalloproteases-9 (MMP-9) (P14780 94-707): as above

Structure (SMILES)	deviation in the IC50 values between on-chip and off-chip experiment [1] [%]	IC50 [1] [nM]	IC50 (MMP-9 enzyme [2]) [nM]	IC50 (MMP-9 enzyme [3]) [nM]
CC(C)(NS(=O)(=O)c1ccc(Oc2ccc(F)cc2)cc1)C(=O)NO [CP417474]	20	11.9 ± 1	14.9 ± 0.9	–
CNC(=O)[C@H](Cc1ccccc1)NC(=O)[C@H](CC(C)C)[C@H](CSc1cccs1)C(=O)NO [batimastat]	–	4.1 ± 0.2	3.5 ± 0.3	3 to 4
CNC(=O)[C@@H](NC(=O)[C@H](CC(C)C)[C@H](O)C(=O)NO)C(C)(C)C [marimastat]	3.2	–	–	–
